Source: US20240124408A1 (Sanofi, priority 2020, published 2024)

Legend:
Type in all cases: cell-based
[1] = target: T1, human TRPM8 (Homo sapiens, UniProt Q7Z2W7); test: In vitro human TRPM8 automated patch-clamp assay (SyncroPatch 384PE, CHO cells); details: CHO cells expressing human TRPM8, 28° C.
T1 construct: expressed in transfected cells; host or cells: CHO (p658 mammalian expression vector)
Experimental: (§1) In Vitro Pig and Human TRPM8 Automated Patch-Clamp Assays
(§2) Automated whole-cell recordings of compound effects were performed on the SyncroPatch 384PE (Nanion Technologies, Munich, Germany) incorporated into a Biomek FX pipetting robot (Beckman Coulter, Jersey City, NJ, USA) using the same engineered CHO cell lines expressing human or pig TRPM8 channels. Data acquisition and analysis were performed with the proprietary software PatchControl 384 and DataControl 384, respectively (Nanion Technologies, Munich, Germany). All recordings were carried out using planar borosilicate glass patch clamp chips in a 384-microtiter plate format with patch hole resistances of 2-4 MO. For recordings, standard intracellular solution was used containing (in mM): 130 KF, 4 NaCl, 1 MgCl2, 0.5 CaCl2, 10 HEPES and 10 EGTA/KOH (pH 7.2) and standard extracellular solution contained in mM: 150 NaCl, 4 KCl, 0.5 CaCl2, 1 MgCl2 and 10 HEPES (pH 7.3).
(§3) Prior to the electrophysiological measurements, cells were harvested using Accutase (GIBCO, Fisher Scientific) and resuspended in warmed extracellular solution. The cell suspension was kept in the dedicated cell reservoir at 28° C. at a 1 million/ml cell density and shaken at 500 rounds per min (rpm). Experiments were performed at 28° C. throughout. Cells were distributed in high resistance 4-holes-per-well Nanion chips where they were caught on the patch holes by application of a −80 mbar pressure. The cell membrane was ruptured to obtain the whole-cell configuration with a pressure pulse of −250 mbar for 2 seconds. Voltage protocols were constructed using PatchControl 384. The cells were held at a holding potential of −60 mV and TRPM8 currents were recorded using a ramp protocol from −80 to +80 mV every 5 seconds before and after compound addition. Resulting currents were recorded at both −80 and +80 mV and current kinetics were exported and analyzed. From each plate, control wells with 200 μM menthol were recorded to validate the assay. One concentration of compound was applied to each of the other wells. For each concentration, compound response was determined by subtracting the baseline current recorded before compound addition from the maximum peak elicited currents obtained after compound addition. Then, each compound response was normalized to control condition without compound and maximum current (Emax) obtained for each compound. Nanion DataControl 384 software plotted current response for each compound concentration and was able to calculate an EC50 value for each active compound.

[2] = target: T2, pig TRPM8 (Sus scrofa, UniProt F1SM15); test: In vitro pig TRPM8 fluorescence calcium flux assay (recombinant CHO cells, Fluo4-AM, FDSS6000); details: recombinant CHO cells expressing pig TRPM8; menthol-related EC50, normalized to 100 μM menthol
T2 construct: expressed in transfected cells; host or cells: CHO (pcDNA5/FRT/TO vector; hygromycin B and blasticidin selection)
T2 sequence (F1SM15 1-1104): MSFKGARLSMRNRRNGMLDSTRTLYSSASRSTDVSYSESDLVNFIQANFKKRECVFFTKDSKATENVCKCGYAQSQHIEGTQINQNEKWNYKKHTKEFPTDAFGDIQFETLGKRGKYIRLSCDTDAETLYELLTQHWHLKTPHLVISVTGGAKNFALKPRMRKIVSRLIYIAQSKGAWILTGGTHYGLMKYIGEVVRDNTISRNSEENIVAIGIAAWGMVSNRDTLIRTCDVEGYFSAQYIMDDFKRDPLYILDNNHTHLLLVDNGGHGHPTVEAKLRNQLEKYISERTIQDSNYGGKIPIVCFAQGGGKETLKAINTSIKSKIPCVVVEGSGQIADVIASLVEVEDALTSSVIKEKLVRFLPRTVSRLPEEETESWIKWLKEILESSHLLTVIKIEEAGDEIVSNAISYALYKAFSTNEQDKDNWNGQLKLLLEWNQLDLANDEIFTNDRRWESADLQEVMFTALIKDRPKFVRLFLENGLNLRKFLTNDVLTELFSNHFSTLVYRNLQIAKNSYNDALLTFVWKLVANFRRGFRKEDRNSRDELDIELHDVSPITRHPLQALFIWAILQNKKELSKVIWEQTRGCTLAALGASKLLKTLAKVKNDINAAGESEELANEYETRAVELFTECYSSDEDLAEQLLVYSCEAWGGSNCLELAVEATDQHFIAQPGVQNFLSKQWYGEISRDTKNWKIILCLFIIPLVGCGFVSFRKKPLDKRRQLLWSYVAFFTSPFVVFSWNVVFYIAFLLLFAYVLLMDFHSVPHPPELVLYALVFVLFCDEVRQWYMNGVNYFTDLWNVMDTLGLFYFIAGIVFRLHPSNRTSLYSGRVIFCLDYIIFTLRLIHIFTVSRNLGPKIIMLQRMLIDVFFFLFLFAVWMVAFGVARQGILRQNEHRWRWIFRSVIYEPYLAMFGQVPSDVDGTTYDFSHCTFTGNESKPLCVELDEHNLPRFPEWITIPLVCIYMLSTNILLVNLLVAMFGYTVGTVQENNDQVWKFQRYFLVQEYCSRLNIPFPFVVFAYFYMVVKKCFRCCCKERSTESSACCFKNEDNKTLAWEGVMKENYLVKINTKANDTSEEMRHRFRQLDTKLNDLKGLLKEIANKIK
Method in brief: (§4)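 CHO cells stably expressing pig or human TRPM8, loaded with 2 μM Fluo4-AM in HBSS/20 mM HEPES/0.1% BSA/2.5 mM probenecid for 1 h at RT. Intracellular calcium read kinetically for 3 min after compound addition. EC50 from sixteen-point curves, normalized to 100 μM menthol maximal response.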

[3] = target: T1, human TRPM8; test: In vitro human TRPM8 fluorescence calcium flux assay (recombinant CHO cells, Fluo4-AM, FDSS6000); details: recombinant CHO cells expressing human TRPM8; menthol-related EC50, normalized to 100 μM menthol
Method in brief: as §4

[4] = target: T2, pig TRPM8; test: In vitro pig TRPM8 automated patch-clamp assay (SyncroPatch 384PE, CHO cells); details: CHO cells expressing pig TRPM8, 28° C.
Experimental: as §1, §2, §3

T1 sequence (Q7Z2W7 whole entry): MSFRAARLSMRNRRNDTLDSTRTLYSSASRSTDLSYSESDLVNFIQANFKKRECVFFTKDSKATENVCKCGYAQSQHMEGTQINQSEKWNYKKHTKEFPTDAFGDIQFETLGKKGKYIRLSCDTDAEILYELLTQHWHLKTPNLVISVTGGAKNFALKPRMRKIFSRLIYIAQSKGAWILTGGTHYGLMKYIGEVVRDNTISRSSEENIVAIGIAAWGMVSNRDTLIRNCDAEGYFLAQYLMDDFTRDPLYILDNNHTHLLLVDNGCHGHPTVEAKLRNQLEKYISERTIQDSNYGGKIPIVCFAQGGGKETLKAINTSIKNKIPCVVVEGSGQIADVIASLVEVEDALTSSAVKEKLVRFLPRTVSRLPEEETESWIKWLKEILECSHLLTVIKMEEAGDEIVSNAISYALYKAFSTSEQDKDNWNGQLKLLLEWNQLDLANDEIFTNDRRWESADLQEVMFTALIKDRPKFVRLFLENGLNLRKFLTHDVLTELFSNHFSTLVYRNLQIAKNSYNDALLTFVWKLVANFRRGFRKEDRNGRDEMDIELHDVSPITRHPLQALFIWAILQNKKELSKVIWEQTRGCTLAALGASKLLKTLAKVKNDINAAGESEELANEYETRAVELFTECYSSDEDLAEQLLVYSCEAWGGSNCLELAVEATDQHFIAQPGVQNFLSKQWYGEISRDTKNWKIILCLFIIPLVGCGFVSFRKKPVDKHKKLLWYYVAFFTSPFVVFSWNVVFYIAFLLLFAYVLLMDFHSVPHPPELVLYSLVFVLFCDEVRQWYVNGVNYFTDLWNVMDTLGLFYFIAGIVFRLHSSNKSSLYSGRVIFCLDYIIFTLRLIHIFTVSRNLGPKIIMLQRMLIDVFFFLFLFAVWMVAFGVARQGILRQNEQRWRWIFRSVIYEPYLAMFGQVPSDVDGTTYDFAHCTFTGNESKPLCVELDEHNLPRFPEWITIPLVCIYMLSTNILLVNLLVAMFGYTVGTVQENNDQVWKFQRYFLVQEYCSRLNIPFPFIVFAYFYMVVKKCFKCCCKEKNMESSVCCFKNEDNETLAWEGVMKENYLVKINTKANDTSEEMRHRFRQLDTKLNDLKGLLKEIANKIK

SMILES	EC50 [1]	EC50 [2]	EC50 [3]	EC50 [4]
CC(C)[C@@H]1CC[C@@H](C)C[C@@]1(O)C(=O)NC[C@@H](OCCO)c1ccccc1 [Example 56, (1S,2S,5R)-1-hydroxy-N—((S)-2-(2-hydroxyethoxy)-2-phenylethyl)-2-isopropyl-5-methylcyclohexane-1-carboxamide]	> 10000 nM	11.2 nM	19.6 nM	6160 nM
COC(=O)c1ccccc1CCNC(=O)[C@]1(O)C[C@H](C)CC[C@H]1C(C)C [Example 106, methyl 2-(2-((1S,2S,5R)-1-hydroxy-2-isopropyl-5-methylcyclohexane-1-carboxamido)ethyl)benzoate]		23.2 nM	29.3 nM	> 10000 nM
CC(C)[C@@H]1CC[C@@H](C)C[C@@]1(O)C(=O)NCC(=O)c1cccs1 [Example 149, (1S,2S,5R)-1-hydroxy-2-isopropyl-5-methyl-N-[2-oxo-2-(2-thienyl)ethyl]cyclohexanecarboxamide]	2300 nM	2 nM	6 nM	1560 nM
CC(C)[C@@H]1CC[C@@H](C)C[C@@]1(O)C(=O)NCCc1ccccc1OCCO [Example 7, (1S,2S,5R)-1-hydroxy-N-(2-(2-hydroxyethoxy)phenethyl)-2-isopropyl-5-methylcyclohexane-1-carboxamide]	2800 nM	8.1 nM	8.5 nM	6190 nM
CC(C)[C@@H]1CC[C@@H](C)C[C@@]1(O)C(=O)NCC(=O)NCc1ccccc1 [Example 30, (1S,2S,5R)—N-(2-(benzylamino)-2-oxoethyl)-1-hydroxy-2-isopropyl-5-methylcyclohexane-1-carboxamide]		766 nM	3250 nM	> 10000 nM
CC(C)[C@@H]1CC[C@@H](C)C[C@@]1(O)C(=O)NCC(CO)c1ccccc1 (single isomer, unassigned) [Example 90]	3000 nM	14.4 nM	41.8 nM	2000 nM
CC(C)[C@@H]1CC[C@@H](C)C[C@@]1(O)C(=O)NCC(CO)c1ccccc1 (stereo partly drawn) [Example 70, (1S,2S,5R)-1-hydroxy-N-(3-hydroxy-2-phenylpropyl)-2-isopropyl-5-methylcyclohexane-1-carboxamide]	3990 nM	8 nM	9 nM	3740 nM
COC(=O)[C@@H](N)COc1cccc(CCNC(=O)[C@]2(O)C[C@H](C)CC[C@H]2C(C)C)c1 [Example 27, methyl O-(3-(2-((1S,2S,5R)-1-hydroxy-2-isopropyl-5-methylcyclohexane-1-carboxamido)ethyl)phenyl)-L-serinate]	2400 nM	10.3 nM	3.1 nM	4000 nM
CC(C)[C@@H]1CC[C@@H](C)C[C@@]1(O)C(=O)NC[C@H](O)c1cccc(O)c1 [Example 41, (1S,2S,5R)-1-hydroxy-N-((2R)-hydroxy-2-(3-hydroxyphenyl)ethyl)-2-isopropyl-5-methylcyclohexane-1-carboxamide]	1100 nM	74.5 nM	195 nM	5110 nM
CC(C)[C@@H]1CC[C@@H](C)C[C@@]1(O)C(=O)NCCO [Example 110, (1S,2S,5R)-1-hydroxy-N-(2-hydroxyethyl)-2-isopropyl-5-methylcyclohexane-1-carboxamide]		639 nM	1640 nM	> 10000 nM
CC(C)[C@@H]1CC[C@@H](C)C[C@@]1(O)C(=O)NCC1COc2ccccc21 (stereo partly drawn) [Example 162, (1S,2S,5R)-N-(2,3-dihydrobenzofuran-3-ylmethyl)-1-hydroxy-2-isopropyl-5-methyl-cyclohexanecarboxamide]		4 nM	5.3 nM	1400 nM
COC(=O)CO[C@H](CNC(=O)[C@]1(O)C[C@H](C)CC[C@H]1C(C)C)c1ccccc1 [Example 57, methyl 2-((S)-2-((1S,2S,5R)-1-hydroxy-2-isopropyl-5-methylcyclohexane-1-carboxamido)-1-phenylethoxy)acetate]		219 nM	254 nM	> 10000 nM

Further compounds by falling EC50 [2], results first:

EC50 [1]	EC50 [2]	EC50 [3]	EC50 [4]	SMILES
	749 nM	547 nM	> 10000 nM	CC(C)[C@@H]1CC[C@@H](C)C[C@@]1(O)C(=O)N[C@H](CCO)c1ccccc1 [Example 86, (1S,2S,5R)-1-hydroxy-N—((R)-3-hydroxy-1-phenylpropyl)-2-isopropyl-5-methylcyclohexane-1-carboxamide]
1930 nM	42 nM	46 nM	1580 nM	COC(=O)C(CNC(=O)[C@]1(O)C[C@H](C)CC[C@H]1C(C)C)c1ccccc1 (stereo partly shown) [Example 69]
	33.4 nM	119 nM	2170 nM	COc1ccc(NC(=O)[C@]2(O)C[C@H](C)CC[C@H]2C(C)C)cc1 [Example 174, (1S,2S,5R)-1-hydroxy-N-(4-methoxyphenyl)-5-methyl-2-propan-2-ylcyclohexane-1-carboxamide]
3800 nM	21.7 nM	42.8 nM	2440 nM	COC(=O)c1cccc(CCNC(=O)[C@]2(O)C[C@H](C)CC[C@H]2C(C)C)c1 [Example 107, methyl 3-(2-((1S,2S,5R)-1-hydroxy-2-isopropyl-5-methylcyclohexane-1-carboxamido)ethyl)benzoate]
2200 nM	21.2 nM	34.3 nM	1040 nM	CC(C)[C@@H]1CC[C@@H](C)C[C@@]1(O)C(=O)NCC(C)(O)c1ccccc1 (stereo partly drawn) [Example 164, (1S,2S,5R)-1-hydroxy-N-(2-hydroxy-2-phenyl-propyl)-2-isopropyl-5-methyl-cyclohexanecarboxamide]
3600 nM	13.9 nM	31.1 nM	5600 nM	CC(C)[C@@H]1CC[C@@H](C)C[C@@]1(O)C(=O)NCCOc1ccccc1 [Example 120, (1S,2S,5R)-1-hydroxy-2-isopropyl-5-methyl-N-(2-phenoxyethyl)cyclohexanecarboxamide]
2200 nM	11.9 nM	22.4 nM	1770 nM	CC(C)[C@@H]1CC[C@@H](C)C[C@@]1(O)C(=O)NCCc1ccc(CO)cc1 [Example 109, (1S,2S,5R)-1-hydroxy-N-(4-(hydroxymethyl)phenethyl)-2-isopropyl-5-methylcyclohexane-1-carboxamide]
6500 nM	11.7 nM	36.6 nM	6760 nM	CC(C)[C@@H]1CC[C@@H](C)C[C@@]1(O)C(=O)NCCc1cccnc1 [Example 124, (1S,2S,5R)-1-hydroxy-2-isopropyl-5-methyl-N-[2-(3-pyridyl)ethyl]cyclohexanecarboxamide]
1800 nM	5.5 nM	3.7 nM	1100 nM	COC(=O)[C@H](N)COc1cccc(CCNC(=O)[C@]2(O)C[C@H](C)CC[C@H]2C(C)C)c1 [Example 26, methyl O-(3-(2-((1S,2S,5R)-1-hydroxy-2-isopropyl-5-methylcyclohexane-1-carboxamido)ethyl)phenyl)-D-serinate]
1900 nM	3 nM	7 nM	940 nM	CC(C)[C@@H]1CC[C@@H](C)C[C@@]1(O)C(=O)NCC(O)c1ccc(F)cc1 (stereo partly drawn) [Example 158, (1S,2S,5R)-N-[2-(4-fluorophenyl)-2-hydroxy-ethyl]-1-hydroxy-2-isopropyl-5-methyl-cyclohexanecarboxamide]
200 nM	2.6 nM	2.4 nM	326 nM	CC(C)[C@@H]1CC[C@@H](C)C[C@@]1(O)C(=O)NCCc1ccccc1CCN [Example 53, (1S,2S,5R)—N-(2-(2-aminoethyl)phenethyl)-1-hydroxy-2-isopropyl-5-methylcyclohexane-1-carboxamide]
